Experimental data: the NIST ThermoML archive (doi:10.1016/j.tca.2016.03.002)
± gives the expanded uncertainty stated by the source.

Columns and labels:
[1] = xn = mol fraction of the nth substance listed; details: 100 kPa, Liquid; for viscosity: Capillary tube (Ostwald / Ubbelohde) method; for mass density: Vibrating tube method
[2] = relative permittivity at various frequencies (dimensionless); xn = mol fraction of the nth substance listed; details: 100 kPa, Liquid, Frequency=30 MHz, Parallel plate capacitor

## NC1CCCCC1 [cyclohexylamine] + CO
[1]; 293.15 K, x2 = 0
  viscosity: 2.142 ± 0.046 mPa·s
  mass density: 866.86 ± 2.1 kg/m3
[1]; 293.15 K, x2 = 0.0666
  viscosity: 2.16 ± 0.05 mPa·s
  mass density: 867.932 ± 2.1 kg/m3
[1]; 293.15 K, x2 = 0.1108
  viscosity: 2.17 ± 0.05 mPa·s
  mass density: 868.284 ± 2.1 kg/m3
[1]; 293.15 K, x2 = 0.2089
  viscosity: 2.18 ± 0.05 mPa·s
  mass density: 869.337 ± 2.1 kg/m3
[1]; 293.15 K, x2 = 0.3043
  viscosity: 2.19 ± 0.05 mPa·s
  mass density: 869.454 ± 2.1 kg/m3
[1]; 293.15 K, x2 = 0.4097
  viscosity: 2.16 ± 0.05 mPa·s
  mass density: 868.83 ± 2.1 kg/m3
[1]; 293.15 K, x2 = 0.4479
  viscosity: 2.13 ± 0.04 mPa·s
  mass density: 868.248 ± 2.1 kg/m3
[1]; 293.15 K, x2 = 0.493
  viscosity: 2.07 ± 0.04 mPa·s
  mass density: 867.202 ± 2.1 kg/m3
[1]; 293.15 K, x2 = 0.5478
  viscosity: 1.99 ± 0.04 mPa·s
  mass density: 865.137 ± 2.1 kg/m3
[1]; 293.15 K, x2 = 0.5961
  viscosity: 1.89 ± 0.04 mPa·s
  mass density: 862.688 ± 2.1 kg/m3
[1]; 293.15 K, x2 = 0.659
  viscosity: 1.7 ± 0.04 mPa·s
  mass density: 858.061 ± 2.1 kg/m3
[1]; 293.15 K, x2 = 0.7014
  viscosity: 1.56 ± 0.03 mPa·s
  mass density: 853.915 ± 2.1 kg/m3
[1]; 293.15 K, x2 = 0.798
  viscosity: 1.22 ± 0.03 mPa·s
  mass density: 841.114 ± 2 kg/m3
[1]; 293.15 K, x2 = 0.8992
  viscosity: 0.89 ± 0.02 mPa·s
  mass density: 820.891 ± 2 kg/m3
[1]; 293.15 K, x2 = 0.9503
  viscosity: 0.72 ± 0.02 mPa·s
  mass density: 807.371 ± 2 kg/m3
[1]; 298.15 K, x2 = 0
  viscosity: 1.908 ± 0.041 mPa·s
  mass density: 862.315 ± 2.1 kg/m3
[1]; 298.15 K, x2 = 0.0666
  viscosity: 1.92 ± 0.04 mPa·s
  mass density: 863.427 ± 2.1 kg/m3
[1]; 298.15 K, x2 = 0.1108
  viscosity: 1.93 ± 0.04 mPa·s
  mass density: 863.705 ± 2.1 kg/m3
[1]; 298.15 K, x2 = 0.2089
  viscosity: 1.94 ± 0.04 mPa·s
  mass density: 864.848 ± 2.1 kg/m3
[1]; 298.15 K, x2 = 0.3043
  viscosity: 1.94 ± 0.04 mPa·s
  mass density: 864.932 ± 2.1 kg/m3
[1]; 298.15 K, x2 = 0.4097
  viscosity: 1.91 ± 0.04 mPa·s
  mass density: 864.276 ± 2.1 kg/m3
[1]; 298.15 K, x2 = 0.4479
  viscosity: 1.88 ± 0.04 mPa·s
  mass density: 863.674 ± 2.1 kg/m3
[1]; 298.15 K, x2 = 0.493
  viscosity: 1.83 ± 0.04 mPa·s
  mass density: 862.605 ± 2.1 kg/m3
[1]; 298.15 K, x2 = 0.5478
  viscosity: 1.76 ± 0.04 mPa·s
  mass density: 860.518 ± 2.1 kg/m3
[1]; 298.15 K, x2 = 0.5961
  viscosity: 1.67 ± 0.04 mPa·s
  mass density: 858.069 ± 2.1 kg/m3
[1]; 298.15 K, x2 = 0.659
  viscosity: 1.52 ± 0.03 mPa·s
  mass density: 853.437 ± 2.1 kg/m3
[1]; 298.15 K, x2 = 0.7014
  viscosity: 1.4 ± 0.03 mPa·s
  mass density: 849.321 ± 2.1 kg/m3
[1]; 298.15 K, x2 = 0.798
  viscosity: 1.11 ± 0.02 mPa·s
  mass density: 836.513 ± 2 kg/m3
[1]; 298.15 K, x2 = 0.8992
  viscosity: 0.78 ± 0.02 mPa·s
  mass density: 816.251 ± 2 kg/m3
[1]; 298.15 K, x2 = 0.9503
  viscosity: 0.67 ± 0.02 mPa·s
  mass density: 802.691 ± 2 kg/m3
[1]; 303.15 K, x2 = 0
  viscosity: 1.697 ± 0.036 mPa·s
  mass density: 857.774 ± 2.1 kg/m3
[1]; 303.15 K, x2 = 0.0666
  viscosity: 1.71 ± 0.04 mPa·s
  mass density: 858.919 ± 2.1 kg/m3
[1]; 303.15 K, x2 = 0.1108
  viscosity: 1.71 ± 0.04 mPa·s
  mass density: 859.196 ± 2.1 kg/m3
[1]; 303.15 K, x2 = 0.2089
  viscosity: 1.72 ± 0.04 mPa·s
  mass density: 860.385 ± 2.1 kg/m3
[1]; 303.15 K, x2 = 0.3043
  viscosity: 1.72 ± 0.04 mPa·s
  mass density: 860.42 ± 2.1 kg/m3
[1]; 303.15 K, x2 = 0.4097
  viscosity: 1.69 ± 0.04 mPa·s
  mass density: 859.728 ± 2.1 kg/m3
[1]; 303.15 K, x2 = 0.4479
  viscosity: 1.66 ± 0.04 mPa·s
  mass density: 859.094 ± 2.1 kg/m3
[1]; 303.15 K, x2 = 0.4931
  viscosity: 1.62 ± 0.03 mPa·s
  mass density: 858.005 ± 2.1 kg/m3
[1]; 303.15 K, x2 = 0.5478
  viscosity: 1.56 ± 0.03 mPa·s
  mass density: 855.9 ± 2.1 kg/m3
[1]; 303.15 K, x2 = 0.5966
  viscosity: 1.48 ± 0.03 mPa·s
  mass density: 853.451 ± 2.1 kg/m3
[1]; 303.15 K, x2 = 0.659
  viscosity: 1.35 ± 0.03 mPa·s
  mass density: 848.818 ± 2 kg/m3
[1]; 303.15 K, x2 = 0.7014
  viscosity: 1.26 ± 0.03 mPa·s
  mass density: 844.723 ± 2 kg/m3
[1]; 303.15 K, x2 = 0.798
  viscosity: 1.04 ± 0.02 mPa·s
  mass density: 831.905 ± 2 kg/m3
[1]; 303.15 K, x2 = 0.8992
  viscosity: 0.75 ± 0.02 mPa·s
  mass density: 811.617 ± 2 kg/m3
[1]; 303.15 K, x2 = 0.9503
  viscosity: 0.62 ± 0.01 mPa·s
  mass density: 798.008 ± 2 kg/m3
[2]; 293.15 K, x2 = 0
  relative permittivity: 4.65 ± 0.09
[2]; 293.15 K, x2 = 0.0702
  relative permittivity: 5.34 ± 0.11
[2]; 293.15 K, x2 = 0.1177
  relative permittivity: 5.88 ± 0.12
[2]; 293.15 K, x2 = 0.2006
  relative permittivity: 7.01 ± 0.14
[2]; 293.15 K, x2 = 0.3049
  relative permittivity: 8.78 ± 0.18
[2]; 293.15 K, x2 = 0.4041
  relative permittivity: 10.87 ± 0.22
[2]; 293.15 K, x2 = 0.4986
  relative permittivity: 13.26 ± 0.27
[2]; 293.15 K, x2 = 0.5392
  relative permittivity: 14.55 ± 0.3
[2]; 293.15 K, x2 = 0.597
  relative permittivity: 16.28 ± 0.33
[2]; 293.15 K, x2 = 0.6609
  relative permittivity: 18.6 ± 0.38
[2]; 293.15 K, x2 = 0.6986
  relative permittivity: 19.95 ± 0.4
[2]; 293.15 K, x2 = 0.746
  relative permittivity: 21.72 ± 0.44
[2]; 293.15 K, x2 = 0.7997
  relative permittivity: 23.89 ± 0.48
[2]; 293.15 K, x2 = 0.8572
  relative permittivity: 26.33 ± 0.53
[2]; 293.15 K, x2 = 0.8985
  relative permittivity: 28.32 ± 0.57
[2]; 293.15 K, x2 = 0.949
  relative permittivity: 30.74 ± 0.62
[2]; 298.15 K, x2 = 0
  relative permittivity: 4.56 ± 0.09
[2]; 298.15 K, x2 = 0.0702
  relative permittivity: 5.23 ± 0.11
[2]; 298.15 K, x2 = 0.1177
  relative permittivity: 5.75 ± 0.12
[2]; 298.15 K, x2 = 0.2006
  relative permittivity: 6.84 ± 0.14
[2]; 298.15 K, x2 = 0.3049
  relative permittivity: 8.55 ± 0.17
[2]; 298.15 K, x2 = 0.4041
  relative permittivity: 10.58 ± 0.21
[2]; 298.15 K, x2 = 0.4986
  relative permittivity: 12.88 ± 0.26
[2]; 298.15 K, x2 = 0.5392
  relative permittivity: 14.1 ± 0.29
[2]; 298.15 K, x2 = 0.597
  relative permittivity: 15.73 ± 0.32
[2]; 298.15 K, x2 = 0.6609
  relative permittivity: 18.05 ± 0.37
[2]; 298.15 K, x2 = 0.6986
  relative permittivity: 19.34 ± 0.39
[2]; 298.15 K, x2 = 0.746
  relative permittivity: 21.14 ± 0.43
[2]; 298.15 K, x2 = 0.7997
  relative permittivity: 23.16 ± 0.47
[2]; 298.15 K, x2 = 0.8572
  relative permittivity: 25.55 ± 0.52
[2]; 298.15 K, x2 = 0.8985
  relative permittivity: 27.5 ± 0.56
[2]; 298.15 K, x2 = 0.949
  relative permittivity: 29.87 ± 0.6
[2]; 303.15 K, x2 = 0
  relative permittivity: 4.47 ± 0.09
[2]; 303.15 K, x2 = 0.0702
  relative permittivity: 5.13 ± 0.1
[2]; 303.15 K, x2 = 0.1177
  relative permittivity: 5.63 ± 0.11
[2]; 303.15 K, x2 = 0.2006
  relative permittivity: 6.68 ± 0.14
[2]; 303.15 K, x2 = 0.3049
  relative permittivity: 8.32 ± 0.17
[2]; 303.15 K, x2 = 0.4041
  relative permittivity: 10.29 ± 0.21
[2]; 303.15 K, x2 = 0.4986
  relative permittivity: 12.47 ± 0.25
[2]; 303.15 K, x2 = 0.5392
  relative permittivity: 13.66 ± 0.28
[2]; 303.15 K, x2 = 0.597
  relative permittivity: 15.28 ± 0.31
[2]; 303.15 K, x2 = 0.6609
  relative permittivity: 17.5 ± 0.35
[2]; 303.15 K, x2 = 0.6986
  relative permittivity: 18.73 ± 0.38
[2]; 303.15 K, x2 = 0.746
  relative permittivity: 20.47 ± 0.41
[2]; 303.15 K, x2 = 0.7997
  relative permittivity: 22.46 ± 0.45
[2]; 303.15 K, x2 = 0.8535
  relative permittivity: 24.61 ± 0.5
[2]; 303.15 K, x2 = 0.8985
  relative permittivity: 26.7 ± 0.54
[2]; 303.15 K, x2 = 0.949
  relative permittivity: 28.96 ± 0.58
